# From US20250327023A1, “TAURINE SUPPLEMENTED CELL CULTURE MEDIUM AND METHODS OF USE” (Regeneron Pharmaceuticals, Inc., priority 2015, published 2025)
# Experiments:
# Type in all cases: cell-based, Chinese hamster
# [1] = tested on: monoclonal antibody (Ab1) producing cell line derived from CHO-K1; test: High-throughput shake flask culture, 17 days, antibody titer (Example 1A); conditions: 1 mM taurine at day 0
# Experimental: Example 1A—High-Throughput Shake Flask Culture: 250 mL shake flasks were inoculated from a seed culture of a monoclonal antibody (Abl) producing cell line derived from CHO-K1. The inoculated cells were grown at 35.5° C. for seventeen days and fed glucose and other supplemental nutrients as needed. Cells were grown in chemically defined (hydrolysate-free and serum-free) base media. Each culture flask was either unsupplemented (Flask 1a), or supplemented with 1 mM taurine at day 0 (Flask 1 b).
# [2] = tested on: monoclonal antibody (Ab2) producing cell line derived from CHO-K1; test: Benchtop-scale 2L bioreactor culture, 14 days, antibody titer (Example 1B), Ab2; conditions: about 1 mM taurine on day 0, day 14; for Ab2 approximate titer increase relative to baseline: Bioreactor 2b vs 2a
# Experimental: (§1) Example 1B—Benchtop-Scale Bioreactors: In a similar example, yet on a larger scale of production, 2L bioreactors were inoculated from a seed culture of a monoclonal antibody (Ab2, Ab3 or Ab4) producing cell line derived from CHO-K1. The inoculated cultures were grown at a temperature of 35.5° C., DO set point of 40.4% and air sparge of 22 ccm for 14 days. […] Glucose, antifoam and basal feed were supplied to the bioreactors as needed. Cultures were grown in unsupplemented medium (Bioreactor 2a, 3a, 4a) or grown in about 1 mM taurine-supplemented medium (Ab2 and Ab3) or about 3 mM taurine-supplemented medium (Ab4), added on day 0 of production (Bioreactors 2b, 3b and 4b, respectively).
# [3] = tested on: monoclonal antibody (Ab3) producing cell line derived from CHO-K1; test: Benchtop-scale 2L bioreactor culture, 14 days, antibody titer (Example 1B), Ab3; conditions: about 1 mM taurine on day 0; for Ab3 approximate titer increase at day 6 compared to unsupplemented medium collected on same day / Ab3 approximate titer increase at day 9 compared to unsupplemented medium collected on same day / Ab3 approximate titer increase relative to baseline: Bioreactor 3b vs 3a
# Experimental: as §1
# [4] = tested on: monoclonal antibody (Ab4) producing cell line derived from CHO-K1; test: Benchtop-scale 2L bioreactor culture, 14 days, antibody titer (Example 1B), Ab4; conditions: about 3 mM taurine on day 0, day 14; for Ab4 approximate titer increase relative to baseline: Bioreactor 4b vs 4a
# Experimental: as §1
# [5] = tested on: monoclonal antibody (Ab1) producing cell line derived from CHO-K1; test: Shake flask culture with varying taurine concentrations, 14 days, antibody titer (Example 2); conditions: for Ab1 % titer increase vs unsupplemented: day 14
# Experimental: Consistency of the protein titer was tested by varying the amount of taurine added to the culture at production day 0. 250 mL shake flasks were inoculated from a seed culture of a monoclonal antibody (Ab1) producing cell line derived from CHO-K1. The inoculated cells were grown at 35.5° C. for fourteen days and fed glucose and other supplemental nutrients as needed. Cells were grown in chemically defined (hydrolysate-free and serum-free) base media. Each culture contained either no taurine (unsupplemented) or taurine at 0.1 mM, 0.3 mM, 0.5 mM, 0,7 mM, 1 mM, 3 mM, 5 mM, 7,5 mM or 10 mM concentrations.
# Ab1-producing CHO cells [6] = test: Shake flask culture, taurine in seed train expansion and/or production phase, 17 days, antibody titer (Example 3A); conditions: day 17
# Experimental: The benefits of adding taurine to the culture during the expansion seed train phase were assessed in the high-throughput shake flask model. In flask 6a (Table 6), the Ab1-producing CHO cells were thawed in chemically defined (hydrolysate-free and serum-free) base media supplemented with 1 mM taurine. Taurine concentration of basal medium was maintained at 1 mM throughout the expansion phase. During production, the culture basal medium was supplemented with 1 mM taurine on day 0. Glucose and nutrient basal feed were supplied as needed during the 17 day production. Flask 6b cells grew in taurine-free (unsupplemented) chemically defined (hydrolysate-free and serum-free) basal medium throughout the seed train expansion phase. At day 0 of production, the culture basal medium was supplemented with 1 mM taurine. For the 17 day production, glucose and nutrient basal feeds were supplied as needed.
# Ab1-producing CHO cells [7] = test: Shake flask culture, varying taurine feeding schedules during production phase, antibody titer (Example 3B)
# Experimental: Example 3B: Varying Taurine Feeding Schedules during Production Phase: To determine whether varying standard feeding schedules of taurine had any effect on the protein titer for taurine-supplemented cultures, additional experiments were conducted in analogous shake flask cultures growing Ab1-producing CHO cells. The cells were subjected to varying culture conditions similar to Example 2, where the feeding schedule was the same as before, glucose/nutrient basal feed was added as needed. Ab1-producing cultures were supplemented with a total of 5 mM taurine Similar productivity (7.1 g/L, 6.8 g/L and 7.0 g/L) is observed in varying taurine feeding schedules. Titer values as compared in this experiment are not statistically different (p>0.1) (see Table 7).
# Ab1-producing CHO cells [8] = test: Ammonia by-product in shake flask culture (Example 4); conditions: taurine supplemented medium
# Experimental: […] The cells were subjected to varying culture conditions similar to above where glucose/nutrient base feed was added as needed.
# [9] = 0.1 mM taurine at day 0, shake flask 5b
# [10] = 0.3 mM taurine at day 0, shake flask 5c
# [11] = 0.5 mM taurine at day 0, shake flask 5d
# [12] = 0.7 mM taurine at day 0, shake flask 5e
# [13] = 1 mM taurine at day 0, shake flask 5f
# [14] = 5 mM taurine at day 0, shake flask 5g
# [15] = 7.5 mM taurine at day 0, shake flask 5h
# [16] = 10 mM taurine at day 0, shake flask 5i
smiles,measurement,setting,value
"NCCS(=O)(=O)O [Taurine, 2-aminoethanesulfonic acid]",Abl Titer (average 17-day antibody titer),"[1]; 250 mL shake flask 1b, harvested day 17",7.9 g/L
same,Approximate titer increase relative to baseline,"[1]; day 17, Flask 1b vs unsupplemented Flask 1a",8%
same,Ab2 Titer (average 14 day antibody titer),[2]; Bioreactor 2b,8 g/L
same,Ab2 approximate titer increase relative to baseline,[2],24%
same,Ab2 approximate titer increase relative to baseline,[2]; listed as taurine,24%
same,Ab3 Titer at day 6,"[3]; Bioreactor 3b, day 6",1.9 g/L
same,Ab3 Titer at day 9,"[3]; Bioreactor 3b, day 9",5.3 g/L
same,Ab3 Titer (average 14 day antibody titer),"[3]; Bioreactor 3b, day 14",7.3 g/L
same,Ab3 approximate titer increase at day 6 compared to unsupplemented medium collected on same day,[3]; day 6,12%
same,Ab3 approximate titer increase at day 6 compared to unsupplemented medium collected on same day,"[3]; day 6, listed as taurine",12%
same,Ab3 approximate titer increase at day 9 compared to unsupplemented medium collected on same day,[3]; day 9,29%
same,Ab3 approximate titer increase at day 9 compared to unsupplemented medium collected on same day,"[3]; day 9, listed as taurine",29%
same,Ab3 approximate titer increase relative to baseline,[3]; day 14,11%
same,Ab3 approximate titer increase relative to baseline,"[3]; day 14, listed as taurine",11%
same,Ab4 Titer (average 14 day antibody titer),[4]; Bioreactor 4b,5.3 g/L
same,Ab4 approximate titer increase relative to baseline,[4],20%
same,Ab4 approximate titer increase relative to baseline,[4]; listed as taurine,20%
same,Ab1 Titer (average 14-day),[5]; [9],6.7 g/L
same,Ab1 % titer increase vs unsupplemented,[5]; [9],3%
same,Ab1 Titer (average 14-day),[5]; [10],6.8 g/L
same,Ab1 % titer increase vs unsupplemented,[5]; [10],5%
same,Ab1 Titer (average 14-day),[5]; [11],6.9 g/L
same,Ab1 % titer increase vs unsupplemented,[5]; [11],6%
same,Ab1 Titer (average 14-day),[5]; [12],7.0 g/L
same,Ab1 % titer increase vs unsupplemented,[5]; [12],8%
same,Ab1 Titer (average 14-day),[5]; [13],7.0 g/L
same,Ab1 % titer increase vs unsupplemented,[5]; [13],8%
same,Ab1 Titer (average 14-day),[5]; [14],7.1 g/L
same,Ab1 % titer increase vs unsupplemented,[5]; [14],9%
same,Ab1 Titer (average 14-day),[5]; [15],7.1 g/L
same,Ab1 % titer increase vs unsupplemented,[5]; [15],9%
same,Ab1 Titer (average 14-day),[5]; [16],7.1 g/L
same,Ab1 % titer increase vs unsupplemented,[5]; [16],9%
same,Ab1 Titer (average 17-day),"Ab1-producing CHO cells [6]; 1 mM taurine in Only Production Phase, shake flask 6b",7.8 g/L
same,Ab1 Titer (average 17-day),"Ab1-producing CHO cells [6]; 1 mM taurine in Seed Train and Production Phases, shake flask 6a",7.7 g/L
same,Ab1 Day 14 Titer,"Ab1-producing CHO cells [7]; taurine schedule: 1 mM day 0, 2 mM days 7, 10 (5 mM total)",7.0 g/L
same,Ab1 Day 14 Titer,"Ab1-producing CHO cells [7]; taurine schedule: 1 mM days 0, 3, 5, 7, 10 (5 mM total)",6.8 g/L
same,Ab1 Day 14 Titer,Ab1-producing CHO cells [7]; taurine schedule: 5 mM day 0,7.1 g/L
same,Abl Ammonia (average 17-day ammonia),Ab1-producing CHO cells [8],1.73 mM″
same,Ammonia decrease compared to unsupplemented medium,Ab1-producing CHO cells [8]; listed as taurine,32%
